In the supplement of paper PMC10307832:

What was measured:
Assay in all cases: relative viability (nuclei count vs DMSO), 5 days (fraction); higher = more cells survive
COR-L23 = test system: COR-L23
How it was run: (§1)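 After 5 days of treatment, lung cancer cells in 1536-well plates were fixed and stained in a single step (final 0.05% Triton X-100, 1% formaldehyde, 1 ug/ml Hoechst) and their nuclei counted on 4× images. Treatment had been applied by pin tool the day after seeding as one drug alone or as a fixed anchor-drug dose with five library-drug doses (not always all listed) in √10 steps. Relative viability is the nuclei count of treated wells divided by that of vehicle wells, and values are medians of duplicate plates.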

ChaGo-K-1 = test system: ChaGo-K-1
How it was run: as §1

EMC-BAC-2 = test system: EMC-BAC-2
How it was run: as §1

EPLC-272H = test system: EPLC-272H
How it was run: as §1

H3255 = test system: H3255
How it was run: as §1

HCC-44 = test system: HCC-44
How it was run: as §1

HCC-827 = test system: HCC-827
How it was run: as §1

LCLC-103H = test system: LCLC-103H
How it was run: as §1

LU99A = test system: LU99A
How it was run: as §1

NCI-H1395 = test system: NCI-H1395
How it was run: as §1

NCI-H1651 = test system: NCI-H1651
How it was run: as §1

NCI-H1793 = test system: NCI-H1793
How it was run: as §1

NCI-H1944 = test system: NCI-H1944
How it was run: as §1

NCI-H2023 = test system: NCI-H2023
How it was run: as §1

NCI-H2085 = test system: NCI-H2085
How it was run: as §1

NCI-H2087 = test system: NCI-H2087
How it was run: as §1

NCI-H2405 = test system: NCI-H2405
How it was run: as §1

NCI-H520 = test system: NCI-H520
How it was run: as §1

NCI-H650 = test system: NCI-H650
How it was run: as §1

NCI-H838 = test system: NCI-H838
How it was run: as §1

SK-MES-1 = test system: SK-MES-1
How it was run: as §1

O=c1cc(N2CCOCC2)oc2c(-c3cccc4c3sc3ccccc34)cccc12 + O=C(CCCCCCC(=O)Nc1ccccc1)NO [Vorinostat] (partner 1 µM)
relative viability (COR-L23; first compound 0.01 µM): 0.578
relative viability (COR-L23; first compound 0.03162 µM): 0.503
relative viability (COR-L23; first compound 0.1 µM): 0.473
relative viability (COR-L23; first compound 0.3162 µM): 0.424
relative viability (COR-L23; first compound 1 µM): 0.54
relative viability (ChaGo-K-1; first compound 0.01 µM): 0.69
relative viability (ChaGo-K-1; first compound 0.03162 µM): 0.785
relative viability (ChaGo-K-1; first compound 0.1 µM): 0.578
relative viability (ChaGo-K-1; first compound 0.3162 µM): 0.813
relative viability (ChaGo-K-1; first compound 1 µM): 0.789
relative viability (EMC-BAC-2; first compound 0.01 µM): 0.458
relative viability (EMC-BAC-2; first compound 0.03162 µM): 0.512
relative viability (EMC-BAC-2; first compound 0.1 µM): 0.533
relative viability (EMC-BAC-2; first compound 0.3162 µM): 0.496
relative viability (EMC-BAC-2; first compound 1 µM): 0.198
relative viability (EPLC-272H; first compound 0.01 µM): 0.539
relative viability (EPLC-272H; first compound 0.03162 µM): 0.4
relative viability (EPLC-272H; first compound 0.1 µM): 0.54
relative viability (EPLC-272H; first compound 0.3162 µM): 0.358
relative viability (EPLC-272H; first compound 1 µM): 0.5
relative viability (H3255; first compound 0.01 µM): 0.83
relative viability (H3255; first compound 0.03162 µM): 0.837
relative viability (H3255; first compound 0.1 µM): 0.759
relative viability (H3255; first compound 0.3162 µM): 0.765
relative viability (H3255; first compound 1 µM): 0.558
relative viability (HCC-44; first compound 0.01 µM): 1.05
relative viability (HCC-44; first compound 0.03162 µM): 1.05
relative viability (HCC-44; first compound 0.1 µM): 1.06
relative viability (HCC-44; first compound 0.3162 µM): 1.03
relative viability (HCC-44; first compound 1 µM): 1.07
relative viability (HCC-827; first compound 0.01 µM): 0.897
relative viability (HCC-827; first compound 0.03162 µM): 0.848
relative viability (HCC-827; first compound 0.1 µM): 0.643
relative viability (HCC-827; first compound 0.3162 µM): 0.779
relative viability (HCC-827; first compound 1 µM): 0.774
relative viability (LCLC-103H; first compound 0.01 µM): 0.739
relative viability (LCLC-103H; first compound 0.03162 µM): 0.824
relative viability (LCLC-103H; first compound 0.1 µM): 0.826
relative viability (LCLC-103H; first compound 0.3162 µM): 0.826
relative viability (LCLC-103H; first compound 1 µM): 0.857
relative viability (LU99A; first compound 0.01 µM): 0.489
relative viability (LU99A; first compound 0.03162 µM): 0.491
relative viability (LU99A; first compound 0.1 µM): 0.446
relative viability (LU99A; first compound 0.3162 µM): 0.512
relative viability (LU99A; first compound 1 µM): 0.491
relative viability (NCI-H1395; first compound 0.03162 µM): 0.719
relative viability (NCI-H1395; first compound 0.1 µM): 0.565
relative viability (NCI-H1395; first compound 0.3162 µM): 1.05
relative viability (NCI-H1395; first compound 1 µM): 0.635
relative viability (NCI-H1651; first compound 0.01 µM): 0.55
relative viability (NCI-H1651; first compound 0.03162 µM): 0.556
relative viability (NCI-H1651; first compound 0.1 µM): 0.528
relative viability (NCI-H1651; first compound 0.3162 µM): 0.567
relative viability (NCI-H1651; first compound 1 µM): 0.489
relative viability (NCI-H1793; first compound 0.01 µM): 0.771
relative viability (NCI-H1793; first compound 0.03162 µM): 0.612
relative viability (NCI-H1793; first compound 0.1 µM): 0.672
relative viability (NCI-H1793; first compound 0.3162 µM): 0.76
relative viability (NCI-H1793; first compound 1 µM): 0.658
relative viability (NCI-H1944; first compound 0.01 µM): 0.529
relative viability (NCI-H1944; first compound 0.03162 µM): 0.612
relative viability (NCI-H1944; first compound 0.1 µM): 0.503
relative viability (NCI-H1944; first compound 0.3162 µM): 0.48
relative viability (NCI-H1944; first compound 1 µM): 0.616
relative viability (NCI-H2023; first compound 0.01 µM): 0.733
relative viability (NCI-H2023; first compound 0.03162 µM): 0.76
relative viability (NCI-H2023; first compound 0.1 µM): 0.786
relative viability (NCI-H2023; first compound 0.3162 µM): 0.55
relative viability (NCI-H2023; first compound 1 µM): 0.677
relative viability (NCI-H2085; first compound 0.01 µM): 0.779
relative viability (NCI-H2085; first compound 0.03162 µM): 0.783
relative viability (NCI-H2085; first compound 0.1 µM): 0.755
relative viability (NCI-H2085; first compound 0.3162 µM): 0.788
relative viability (NCI-H2085; first compound 1 µM): 0.753
relative viability (NCI-H2087; first compound 0.01 µM): 0.474
relative viability (NCI-H2087; first compound 0.03162 µM): 0.637
relative viability (NCI-H2087; first compound 0.1 µM): 0.8
relative viability (NCI-H2087; first compound 0.3162 µM): 0.64
relative viability (NCI-H2087; first compound 1 µM): 0.745
relative viability (NCI-H2405; first compound 0.01 µM): 1.01
relative viability (NCI-H2405; first compound 0.03162 µM): 1.04
relative viability (NCI-H2405; first compound 0.1 µM): 1.04
relative viability (NCI-H2405; first compound 0.3162 µM): 1.01
relative viability (NCI-H2405; first compound 1 µM): 0.736
relative viability (NCI-H520; first compound 0.01 µM): 0.775
relative viability (NCI-H520; first compound 0.03162 µM): 0.755
relative viability (NCI-H520; first compound 0.1 µM): 0.689
relative viability (NCI-H520; first compound 0.3162 µM): 0.728
relative viability (NCI-H520; first compound 1 µM): 0.794
relative viability (NCI-H650; first compound 0.01 µM): 0.537
relative viability (NCI-H650; first compound 0.03162 µM): 0.412
relative viability (NCI-H650; first compound 0.3162 µM): 0.496
relative viability (NCI-H650; first compound 1 µM): 0.402
relative viability (NCI-H838; first compound 0.01 µM): 0.752
relative viability (NCI-H838; first compound 0.03162 µM): 0.716
relative viability (NCI-H838; first compound 0.1 µM): 0.686
relative viability (NCI-H838; first compound 0.3162 µM): 0.657
relative viability (NCI-H838; first compound 1 µM): 0.698
relative viability (SK-MES-1; first compound 0.01 µM): 1.04
relative viability (SK-MES-1; first compound 0.03162 µM): 1.06
relative viability (SK-MES-1; first compound 0.1 µM): 1.04
relative viability (SK-MES-1; first compound 0.3162 µM): 1.04
relative viability (SK-MES-1; first compound 1 µM): 1.09
